Target: cGMP-specific 3',5'-cyclic phosphodiesterase, PDE5 (Sus scrofa)
Test: Inhibitory activity against cGMP-phosphodiesterase from porcine aorta

Compound	IC50
CS(=O)(=O)c1ccc2ncnc(NCc3ccc4c(c3)OCO4)c2c1 [Benzo[1,3]dioxol-5-ylmethyl-(6-methanesulfonyl-quinazolin-4-yl)-amine]	0.81 µM
NC(=O)c1ccc2ncnc(NCc3ccc4c(c3)OCO4)c2c1 [4-[(Benzo[1,3]dioxol-5-ylmethyl)-amino]-quinazoline-6-carboxylic acid amide]	0.77 µM
COc1ccc2ncnc(NCc3ccc4c(c3)OCO4)c2c1 [Benzo[1,3]dioxol-5-ylmethyl-(6-methoxy-quinazolin-4-yl)-amine]	0.23 µM
COc1cc2ncnc(NCc3ccc4c(c3)OCO4)c2cc1SC [Benzo[1,3]dioxol-5-ylmethyl-(7-methoxy-6-methylsulfanyl-quinazolin-4-yl)-amine]	0.35 µM
OCc1ccc2ncnc(NCc3ccc4c(c3)OCO4)c2c1 [{4-[(Benzo[1,3]dioxol-5-ylmethyl)-amino]-quinazolin-6-yl}-methanol]	0.93 µM
Cc1ccc2ncnc(NCc3ccc4c(c3)OCO4)c2c1 [Benzo[1,3]dioxol-5-ylmethyl-(6-methyl-quinazolin-4-yl)-amine]	0.1 µM
CSc1ccc2ncn(Cc3ccc4c(c3)OCO4)c(=O)c2c1 [3-Benzo[1,3]dioxol-5-ylmethyl-6-methylsulfanyl-3H-quinazolin-4-one]	2.3 µM

The remaining lines, values ahead:

IC50	Compound
8.7 µM	O=c1c2ccc(Cl)cc2ncn1Cc1ccc2c(c1)OCO2 [3-Benzo[1,3]dioxol-5-ylmethyl-7-chloro-3H-quinazolin-4-one]
0.73 µM	COc1ccc2ncnc(NCc3ccc4c(c3)OCO4)c2c1OC [Benzo[1,3]dioxol-5-ylmethyl-(5,6-dimethoxy-quinazolin-4-yl)-amine]
0.81 µM	COc1cc(OC)c2ncnc(NCc3ccc4c(c3)OCO4)c2c1 [Benzo[1,3]dioxol-5-ylmethyl-(6,8-dimethoxy-quinazolin-4-yl)-amine]
0.62 µM	CCOC(=O)c1ccc2ncnc(NCc3ccc4c(c3)OCO4)c2c1 [4-[(Benzo[1,3]dioxol-5-ylmethyl)-amino]-quinazoline-6-carboxylic acid ethyl ester]
0.38 µM	CCOc1ccc2ncnc(NCc3ccc4c(c3)OCO4)c2c1 [Benzo[1,3]dioxol-5-ylmethyl-(6-ethoxy-quinazolin-4-yl)-amine]
2.7 µM	O=C(c1ccc2ncnc(NCc3ccc4c(c3)OCO4)c2c1)N1CCOCC1 [{4-[(Benzo[1,3]dioxol-5-ylmethyl)-amino]-quinazolin-6-yl}-morpholin-4-yl-methanone]
2.3 µM	CN(C)C(=O)c1ccc2ncnc(NCc3ccc4c(c3)OCO4)c2c1 [4-[(Benzo[1,3]dioxol-5-ylmethyl)-amino]-quinazoline-6-carboxylic acid dimethylamide]

Reference: BindingDB's records for doi:10.1021/jm00039a024 (Eisai, 1994)
